According to patent US20230012368A1 (Hoffmann-La Roche Inc., priority 2018, published 2023):
Structures can show the parent of a compound that is named as a salt. Where two headings read alike, the source gives them in different places.

Tested on: Acinetobacter baumannii ATCC 17978
Assay: Antimicrobial susceptibility testing: 90% growth inhibitory concentration (IC90) determination
Type: cell-based
Details: 90% growth inhibitory concentration, Acinetobacter baumannii ATCC17978, Iso-Sensitest broth, OD 600 nm over 16h, read-out: ATCC17978 IC90
Summary of the method: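 Compounds serially twofold diluted (e.g. 50 to 0.097 μM final) in Iso-Sensitest broth, inoculated at ~5×10^(5) CFU/ml, incubated at 35±2° C. OD600 read every 20 minutes over 16h. IC90 taken as concentration inhibiting 90% of growth during logarithmic phase.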

[1] = Acinetobacter baumannii, ATCC17978, 16 h

Compound | IC90 [1] | IC90
N#CCOc1ccc(-c2cnc3c(Nc4ccc(C(=O)NCc5cc[nH]c(=O)c5)c(Cl)c4)nccn23)c(F)c1F [Example 85, 2-chloro-4-[[3-[4-(cyanomethoxy)-2,3-difluoro-phenyl]imidazo[1,2-a]pyrazin-8-yl]amino]-N-[(2-oxo-1H-pyridin-4-yl)methyl]benzamide] | 0.07 µM | 
Cc1cc(Nc2nccn3c(-c4ccc(Cl)c(F)c4F)cnc23)ccc1C(=O)NC(C)CCN (stereo not shown) [Example 318, N-(4-aminobutan-2-yl)-4-[[3-(4-chloro-2,3-difluorophenyl)imidazo[1,2-a]pyrazin-8-yl]amino]-2-methylbenzamide; hydrochloride] |  | 2.5 µM
CNC(=O)c1ccc(Nc2nccn3c(-c4ccc(OC)c(Cl)c4)cnc23)cc1C [Example 27, 4-((3-(3-chloro-4-methoxyphenyl)imidazo [1,2-a]pyrazin-8-yl)amino)-N,2-dimethylbenzamide] | 0.19 µM | 
Cc1cc(Nc2nccn3c(-c4ccc(OC(F)F)cc4)cnc23)ccc1C(=O)N(C)CCN1CCNCC1 [Example 45, 4-[[3-[4-(difluoromethoxy)phenyl]imidazo[1,2-a]pyrazin-8-yl]amino]-N,2-dimethyl-N-(2-piperazin-1-ylethyl)benzamide] | 0.35 µM | 
COc1ccc(-c2cnc3c(Nc4ccc(C(=O)NCC5CCOC5)c(C)c4)nccn23)cc1F (stereo not shown) [Example 70, 4-((3-(3-fluoro-4-methoxyphenyl)imidazo [1,2-a]pyrazin-8-yl)amino)-2-methyl-N-((tetrahydrofuran-3-yl)methyl)benzamide] | 0.7 µM | 
COc1ccc(-c2cnc3c(Nc4ccc(C(=O)N(C)CC5CNC5)c(C)c4)nccn23)cc1F [Example 384, N-(azetidin-3-ylmethyl)-4-[[3-(3-fluoro-4-methoxyphenyl)imidazo[1,2-a]pyrazin-8-yl]amino]-N,2-dimethylbenzamide] |  | 0.88 µM
COc1ccc(-c2cnc3c(Nc4ccc(C(=O)N(C)C)cc4)nccn23)c(F)c1F [Example 107, 4-[[3-(2,3-difluoro-4-methoxy-phenyl)imidazo[1,2-a]pyrazin-4-yl]amino]-N,N-dimethyl-benzamide] | 0.12 µM | 
CCc1cc(Nc2nccn3c(-c4ccc(Cl)c(F)c4F)cnc23)ccc1C(=O)NCCNC(=O)[C@H](N)CCCNC(=N)N [Example 130, N-[2-[[(2R)-2-amino-5-guanidino-pentanoyl]amino]ethyl]-4-[[3-(4-chloro-2,3-difluoro-phenyl)imidazo[1,2-a]pyrazin-8-yl]amino]-2-ethyl-benzamide formate] | 0.64 µM | 
CNCC1CN(CCN(C)C(=O)c2ccc(Nc3nccn4c(-c5ccc(OC)c(F)c5)cnc34)cc2C)CCO1 (stereo not shown) [Example 109, 4-[[3-(3-fluoro-4-methoxy-phenyl)imidazo[1,2-a]pyrazin-8-yl]amino]-N,2-dimethyl-N-[2-[2-(methylaminomethyl)morpholin-4-yl]ethyl]benzamide hydrochloride] |  | 0.96 µM
CCc1cc(Nc2nccn3c(-c4ccc(OCC#N)c(F)c4F)cnc23)ccc1C(=O)NCCNC(=O)CCN [Example 137, N-[2-(3-aminopropanoyl-amino)ethyl]-4-[[3-[4-(cyanomethoxy)-2,3-difluoro-phenyl]imidazo[1,2-a]pyrazin-8-yl]amino]-2-ethyl-benzamide formate] | 0.07 µM | 
CNC(=O)c1ccc(Nc2nccn3c(-c4ccc(OC(F)F)cc4)cnc23)cc1Br [Example 93, 2-bromo-4-((3-(4-(difluoromethoxy)phenyl)imidazo[1,2-a]pyrazin-8-yl)amino)-N-methylbenzamide] | 0.2 µM | 
Cc1cc(Nc2nccn3c(-c4ccc(Cl)cc4)cnc23)ccc1C(=O)N(C)CCC1CCNCC1 [Example 88, 4-((3-(4-chlorophenyl)imidazo [1,2-a]pyrazin-8-yl)amino)-N,2-dimethyl-N-(2-(piperidin-4-yl)ethyl)benzamide hydrochloride] |  | 0.25 µM
Cc1cc(Nc2nccn3c(-c4ccc(OC(F)F)cc4)cnc23)ccc1C(=O)NCCSc1nnnn1C [Example 176, 4-[[3-[4-(difluoromethoxy)phenyl]im-idazo[1,2-a]pyrazin-8-yl]amino]-2-methyl-N-[2-(1-methyltetrazol-5-yl)sulfanylethyl]benzamide] | 0.52 µM | 

Further lines, with some results ahead:

IC90 [1] | Compound | IC90
0.24 µM | CCc1cc(Nc2nccn3c(-c4ccc(OC)c(F)c4F)cnc23)ccc1C(=O)NCC(O)CNC(=O)[C@@H](N)CCNC(=N)N (mixture of isomers) [Example 416, rac-N-(3-((R)-2-amino-4-guanidinobutanamido)-2-hydroxypropyl)-4-((3-(2,3-difluoro-4-methoxyphenyl)imidazo[1,2-a]pyrazin-8-yl)amino)-2-ethylbenzamide diformate] | 
0.59 µM | CCc1cc(Nc2nccn3c(-c4ccc(OC)c(F)c4F)cnc23)ccc1C(=O)NCC[C@@H](C)NC(=O)[C@@H](N)CCCNC(=N)N [Example 340, N-[(3R)-3-[[(2S)-2-amino-5-carbamimidamidopentanoyl]amino]butyl]-4-[[3-(2,3-difluoro-4-methoxyphenyl)imidazo[1,2-a]pyrazin-8-yl]amino]-2-ethylbenzamide; hydrochloride] | 
5.1 µM | COc1ccc(-c2cnc3c(Nc4ccc(C(=O)N(C)CCN)cc4)nccn23)cc1 [Example 264, N-(2-aminoethyl)-4-[[3-(4-methoxyphenyl)imidazo[1,2-a]pyrazin-8-yl]amino]-N-methylbenzamide; hydrochlo-ride] | 
1.2 µM | Cc1cc(Nc2nccn3c(-c4ccc(Cl)c(F)c4F)cnc23)ccc1C(=O)N(C)CCCN [Example 228, N-(3-aminopropyl)-4-[[3-(4-chloro-2,3-difluorophenyl)imidazo[1,2-a]pyrazin-8-yl]amino]-N,2-dimethylbenzamide;hydrochlo-ride] | 
0.73 µM | CCc1cc(Nc2nccn3c(-c4ccc(OC)c(F)c4F)cnc23)ccc1C(=O)N[C@@H](C)CNC(=O)[C@@H](N)CCCNC(=N)N [Example 342, N-[(2S)-1-[[(2S)-2-amino-5-carbamimidamidopentanoyl]amino]propan-2-yl]-4-[[3-(2,3-difluoro-4-methoxyphenyl)imidazo[1,2-a]pyrazin-8-yl]amino]-2-ethylbenzamide; formic acid] | 
0.32 µM | CCc1cc(Nc2nccn3c(-c4ccc(OC)c(F)c4F)cnc23)ccc1C(=O)NCC(O)CNC(=O)CC(O)CN (stereo not shown) [Example 411, N-(3-(4-amino-3-hydroxybutanamido)-2-hydroxypropyl)-4-((3-(2,3-difluoro-4-methoxyphenyl)imidazo[1,2-a]pyrazin-8-yl)amino)-2-ethylbenzamide hydrochloride] | 
0.09 µM | Cc1cc(Nc2nccn3c(-c4ccc(OCC#N)c(F)c4F)cnc23)ccc1C(=O)NCCNC(=O)[C@@H]1C[C@@H](O)CN1 [Example 365, (2S,4R)-N-[2-[[4-[[3-[4-(cyanomethoxy)-2,3-difluorophenyl]imidazo[1,2-a]pyrazin-8-yl]amino]-2-methylbenzoyl]amino]ethyl]-4-hydroxypyrrolidine-2-carboxamide] | 
0.2 µM | CCc1cc(Nc2nccn3c(-c4ccc(OC)c(F)c4F)cnc23)ccc1C(=O)NCCC1CCNCC1 [Example 388, 4-[[3-(2,3-difluoro-4-methoxyphenyl)imidazo[1,2-a]pyrazin-8-yl]amino]-2-ethyl-N-(2-piperidin-4-ylethyl)benzamide; hydrochlo-ride] | 
0.15 µM | COc1ccc(-c2cnc3c(Nc4ccc(C(=O)NCCNC(=O)[C@@H]5C[C@](C)(O)CN5)c(C)c4)nccn23)c(F)c1F [Example 372, (2S,4S)-N-[2-[[4-[[3-(2,3-difluoro-4-methoxyphenyl)imidazo[1,2-a]pyrazin-8-yl]amino]-2-methylbenzoyl]amino]ethyl]-4-hydroxy-4-methylpyrrolidine-2-carboxamide] | 
0.48 µM | CCc1cc(Nc2nccn3c(-c4ccc(OC)c(F)c4F)cnc23)ccc1C(=O)NCCNC(=O)C(CNC(=N)N)NC(=O)[C@@H](N)CCC(=O)O (mixture of isomers) [Example 461, (4S)-4-amino-5-((1-((2-(4-((3-(2,3-difluoro-4-methoxyphenyl)imidazo[1,2-a]pyrazin-8-yl)amino)-2-ethylbenzamido)ethyl)amino)-3-guanidino-1-oxopropan-2-yl)amino)-5-oxopentanoic acid trihydrochloride] | 
0.56 µM | CCc1cc(Nc2nccn3c(-c4ccc(Oc5nccc(OC)n5)c(F)c4F)cnc23)ccc1C(=O)NCCN [Example 466, N-(2-aminoethyl)-4-((3-(2,3-difluoro-4-((4-methoxypyrimidin-2-yl)oxy)phenyl)imidazo[1,2-a]pyrazin-8-yl)amino)-2-ethylbenzamide] | 
0.48 µM | CCc1cc(Nc2nccn3c(-c4ccc(OC(F)F)c(F)c4F)cnc23)ccc1C(=O)NCCCN [Example 276, N-(3-aminopropyl)-4-[[3-[4-(difluoromethoxy)-2,3-difluorophenyl]imidazo[1,2-a]pyrazin-8-yl]amino]-2-ethylbenzamide;hydrochloride] | 
1.1 µM | CNC(=O)c1ccc(Nc2nccn3c(-c4ccc(OC(F)F)cc4)cnc23)cc1CO [Example 225, 4-[[3-[4-(difluoromethoxy)phenyl]im-idazo[1,2-a]pyrazin-8-yl]amino]-2-(hydroxymethyl)-N-methylbenzamide] | 
2.8 µM | Cc1cc(Nc2nccn3c(-c4ccc(OC(F)F)cc4)cnc23)ccc1C(=O)NCC(=O)N1CCOCC1 [Example 252, 4-[[3-[4-(difluoromethoxy)phenyl]im-idazo[1,2-a]pyrazin-8-yl]amino]-2-methyl-N-(2-morpholin-4-yl-2-oxoethyl)benzamide] | 
0.29 µM | COc1ccc(-c2cnc3c(Nc4ccc5c(c4)CCN(CCCO)C5=O)nccn23)c(F)c1F [Example 327, 6-[[3-(2,3-difluoro-4-methoxyphenyl)imidazo[1,2-a]pyrazin-8-yl]amino]-2-(3-hydroxypropyl)-3,4-dihydroisoquinolin-1-one] | 
